Source: PMC5615129 (Toxicology Reports, 2017)

Target: T1, aromatase (CYP19) (Homo sapiens, UniProt P11511)
T1 sequence (P11511 1-503): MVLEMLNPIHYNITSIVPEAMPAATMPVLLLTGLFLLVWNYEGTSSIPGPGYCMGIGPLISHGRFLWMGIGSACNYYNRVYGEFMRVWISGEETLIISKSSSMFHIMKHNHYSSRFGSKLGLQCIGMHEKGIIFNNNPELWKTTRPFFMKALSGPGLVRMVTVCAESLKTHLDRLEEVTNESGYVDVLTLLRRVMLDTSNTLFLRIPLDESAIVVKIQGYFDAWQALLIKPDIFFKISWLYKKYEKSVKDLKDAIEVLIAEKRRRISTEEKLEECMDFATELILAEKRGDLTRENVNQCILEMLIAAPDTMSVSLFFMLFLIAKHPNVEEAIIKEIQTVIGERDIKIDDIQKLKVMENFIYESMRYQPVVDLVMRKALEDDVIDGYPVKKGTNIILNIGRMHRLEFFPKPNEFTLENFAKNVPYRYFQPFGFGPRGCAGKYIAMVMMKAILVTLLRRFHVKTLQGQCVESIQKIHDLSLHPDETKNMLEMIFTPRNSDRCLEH
Format: cell-based

With `C/C=C(\C)c1cc(O)c(C)c2c1Oc1cc(O)cc(C)c1C(=O)O2` [UNG, unguinol] the IC50 was 9.73 µM.
